In patent publication US20200317642A1, “AMINE-SUBSTITUTED HETEROCYCLIC COMPOUNDS AS EHMT2 INHIBITORS AND DERIVATIVES THEREOF” (Epizyme, Inc., priority 2017, published 2020) one finds IC50 data, which are given here for 26 compounds.

One may read the IC50 as the concentration needed to halve the response being measured.

The target of this assay is T1, human EHMT2 913-1193 (Homo sapiens, UniProt Q96KQ7).
T1 construct: recombinant purified human EHMT2 913-1193, Viva; purchased Viva
T1 sequence (Q96KQ7 913-1193): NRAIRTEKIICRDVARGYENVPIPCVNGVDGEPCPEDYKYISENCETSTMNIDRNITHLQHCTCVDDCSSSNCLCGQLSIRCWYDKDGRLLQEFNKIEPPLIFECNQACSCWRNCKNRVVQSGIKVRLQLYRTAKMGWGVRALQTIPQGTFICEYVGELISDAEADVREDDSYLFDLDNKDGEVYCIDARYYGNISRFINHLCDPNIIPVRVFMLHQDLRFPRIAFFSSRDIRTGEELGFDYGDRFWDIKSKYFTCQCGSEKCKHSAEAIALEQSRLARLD
The assay can be described thus: EHMT2 enzyme assay on histone peptide substrate. The class given is biochemical. The following applies: Table 3; histone H3 1-15 peptide, balanced conditions; read-out: EHMT2 PEP (IC50 μM). From the text:
Recombinant purified human EHMT2 913-1193 ([…]) synthesized by Viva was used for all experiments. Biotinylated histone peptides were synthesized by Biopeptide and HPLC-purified to >95% purity. Streptavidin Flashplates and seals were purchased from PerkinElmer and 384 Well V-bottom Polypropylene Plates were from Greiner. ^3H-labeled S-adenosylmethionine (^3H-SAM) was obtained from American Radiolabeled Chemicals with a specific activity of 80 Ci/mmol. Unlabeled SAM and S-adenosylhomocysteine (SAH) were obtained from American Radiolabeled Chemicals and Sigma-Aldrich respectively. Flashplates were washed in a Biotek ELx-405 with 0.1% Tween. 384-well Flashplates and 96-well filter binding plates were read on a TopCount microplate reader (PerkinElmer). Compound serial dilutions were performed on a Freedom EVO (Tecan) and spotted into assay plates using a Thermo Scientific Matrix PlateMate (Thermo Scientific). Reagent cocktails were added by Multidrop Combi (Thermo Scientific).
10-point curves of test compounds were made on a Freedom EVO (Tecan) using serial 3-fold dilutions in DMSO, beginning at 2.5 mM (final top concentration of compound was […] and the DMSO was 2%). A 1 μL aliquot of the inhibitor dilution series was spotted in a polypropylene 384-well V-bottom plate (Greiner) using a Thermo Scientific Matrix PlateMate (Thermo Scientific). The 100% inhibition control consisted of 1 mM final concentration of the product inhibitor S-adenosylhomocysteine (SAH, Sigma-Aldrich). Compounds were incubated for 30 minutes with 40 μL per well of 0.031 nM EHMT2 (recombinant purified human EHMT2 913-1193, Viva) in 1× assay buffer (20 mM Bicine [pH 7.5], 0.002% Tween 20, 0.005% Bovine Skin Gelatin and 1 mM TCEP). 10 μL per well of substrate mix comprising assay buffer, ^3H-SAM (^3H-labeled S-adenosylmethionine, American Radiolabeled Chemicals, specific activity of 80 Ci/mmol), unlabeled SAM (American Radiolabeled Chemicals), and peptide representing histone H3 residues 1-15 containing C-terminal biotin (appended to a C-terminal amide-capped lysine, synthesized by Biopeptide and HPLC-purified to greater than 95% purity) were added to initiate the reaction (both substrates were present in the final reaction mixture at their respective Km values, an assay format referred to as “balanced conditions”). Reactions were incubated for 60 minutes at room temperature and quenched with 10 μL per well of 400 μM unlabeled SAM, then transferred to a 384-well streptavidin Flashplate (PerkinElmer) and washed in a Biotek ELx-405 well washer with 0.1% Tween after 60 minutes. 384-well Flashplates were read on a TopCount microplate reader (PerkinElmer).
In the case of `CNc1cc(C)nc(Nc2ccc(Br)c(CNCCN3CCCC3)c2)n1` [Compound 1, 2-N-[4-bromo-3-([[2-(pyrrolidin-1-yl)ethyl]amino]methyl)phenyl]-4-N,6-dimethylpyrimidine-2,4-diamine], the IC50 is 0.1 to 1 µM. In the case of `CNc1cc(C)nc(Nc2ccc(Cl)c(C(=O)NCC3COC3)c2)n1` [Compound 2, 2-chloro-5-[[4-methyl-6-(methylamino)pyrimidin-2-yl]amino]-N-(oxetan-3-ylmethyl)benzamide], the 50% inhibitory concentration (IC50) was greater than 10 µM. Next, `CNc1cc(C)nc(Nc2ccc(Cl)c(C(=O)NCC3CCC3)c2)n1` [Compound 3]: 1 to 10 µM; `CNc1cc(C)nc(Nc2ccc(Cl)c(C(=O)NCC3CC3)c2)n1` [Compound 4]: greater than 10 µM. Next, `CNc1cc(C)nc(Nc2ccc(Cl)c(C(=O)Nc3cccnn3)c2)n1` [Compound 5]: greater than 10 µM; `CNc1cc(C)nc(Nc2ccc(Cl)c(C(=O)Nc3ncco3)c2)n1` [Compound 6]: 1 to 10 µM; `CNc1cc(C)nc(Nc2ccc(Cl)c(C(=O)NCCN3CCCC3)c2)n1` [Compound 7]: 0.1 to 1 µM. Then `CNc1cc(C)nc(Nc2ccc(Cl)c(C(=O)NC3CCOCC3)c2)n1` [Compound 8], with greater than 10 µM. Regarding `CCCCNC(=O)c1cc(Nc2nc(C)cc(NC)n2)ccc1Cl` [Compound 9], the IC50 fell in the range of 1 to 10 µM.

Take `CNc1cc(C)nc(Nc2ccc(Cl)c(C(=O)Nc3ccccc3)c2)n1` [Compound 10]: the IC50 was greater than 10 µM.

In the case of `CNc1cc(C)nc(Nc2ccc(C3CC3)c(CNCCN3CCCC3)c2)n1` [Compound 11, 2-N-[4-cyclopropyl-3-([[2-(pyrrolidin-1-yl)ethyl]amino]methyl)phenyl]-4-N,6-dimethylpyrimidine-2,4-diamine], the IC50 fell in the range of 0.1 to 1 µM. Then `CNc1cc(C)nc(Nc2ccc(Cl)c(C(=O)Nc3cscn3)c2)n1` [Compound 13], with 1 to 10 µM; and `CNc1cc(C)nc(Nc2ccc(Cl)c(C(=O)Nc3cocn3)c2)n1` [Compound 14, 2-chloro-5-[[4-methyl-6-(methylamino)pyrimidin-2-yl]amino]-N-(1,3-oxazol-4-yl)benzamide], with greater than 10 µM. As for `CNc1cc(C)nc(Nc2ccc(Cl)c(C(=O)Nc3cn(C)cn3)c2)n1` [Compound 15], the IC50 was greater than 10 µM. Turning to `CNc1cc(C)nc(Nc2ccc(OC)c(C#CCN3CCNCC3)c2)n1` [Compound 28, 2-N-[4-methoxy-3-[3-(piperazin-1-yl)prop-1-yn-1-yl]phenyl]-4-N,6-dimethylpyrimidine-2,4-diamine], the IC50 was in the range of 0.1 to 1 µM. Next, `CNc1cc(C)nc(Nc2ccc(C)c(C(=O)Nc3cc(C#N)ccn3)c2)n1` [Compound 30]: greater than 10 µM; `CNc1cc(C)nc(Nc2ccc(OC)c(CNCCN3CCC[C@H]3C)c2)n1` [Compound 31]: 0.1 to 1 µM. As for `CNc1cc(C)nc(Nc2ccc(OC)c(CNCCN3CCC[C@@H]3C)c2)n1` [Compound 32], the IC50 was greater than 10 µM. Then `CNc1cc(C)nc(Nc2ccc(C)c(C(=O)Nc3ncn(C)n3)c2)n1` [Compound 33], with greater than 10 µM; and `CNc1cc(C)nc(Nc2ccc(OC)c(CNCCN3CC(C)C3)c2)n1` [Compound 35], with greater than 10 µM. Next, `CNc1cc(C)nc(Nc2ccc(C)c(C(=O)Nc3cn(C4CC4)cn3)c2)n1` [Compound 36]: greater than 10 µM.

As for `CNc1cc(C)nc(Nc2ccc(C)c(C(=O)Nc3c[nH]cn3)c2)n1` [Compound 37], the IC50 lay in the range of 1 to 10 µM.

`CNc1cc(C)nc(Nc2ccc(OC)c(CNCCN3CC[C@@H](C)C3)c2)n1` [Compound 38]: the IC50 lay in the range of 1 to 10 µM. With `CNc1cc(C)nc(Nc2ccc(OC)c(CNCCN3CC[C@H](C)C3)c2)n1` [Compound 39], the half-maximal inhibitory concentration (IC50) lay within 0.1 to 1 µM.

As for `CNc1cc(C)nc(Nc2ccc(OC)c(OC[C@H](O)CN3CCCCC3)c2)n1` [Compound 40], the IC50 was greater than 10 µM.

Consider `CNc1cc(C)nc(Nc2ccc(OC)c(OC[C@H](O)CN3CC4(CC4)C3)c2)n1` [Compound 41], for which the IC50 was greater than 10 µM.
